Laboratory results taken from ChEMBL document CHEMBL1155117, “Cyclobranol: a substrate for C25-methyl sterol side chains and potent mechanism-based inactivator of plant sterol methyltransferase” (Bioorg Med Chem Lett, 2008).

How the values were obtained:
Glycine max [1] = experiment: Activity of soybean sterol C24-methyltransferase 1
[2] = Inhibition of sunflower sterol C24-methyltransferase 1; set-up: species or system Helianthus annuus
Glycine max [3] = experiment: Ratio of Kcat to Kinact for soybean sterol C24-methyltransferase 1
[4] = Inhibition of soybean sterol C24-methyltransferase 1; set-up: species or system Glycine max

Structure (SMILES)	Km (Glycine max [1]) [µM]	kcat (Glycine max [1]) [s⁻¹]	Ki [2] [µM]	Ratio (Glycine max [3])	Ki [4] [µM]
CC(C)=CCC[C@@H](C)[C@H]1CC[C@@]2(C)[C@@H]3CC[C@H]4C(C)(C)[C@@H](O)CC[C@@]45C[C@@]35CC[C@]12C	30	0.001	–	–	–
CC(C)=C(C)CC[C@@H](C)[C@H]1CC[C@@]2(C)[C@@H]3CC[C@H]4C(C)(C)[C@@H](O)CC[C@@]45C[C@@]35CC[C@]12C [CYCLOBRANOL]	37	0.0001	100	0.04	25
